Assay results from the supplement of paper PMC10627819.

What was measured:
S. aureus DSM 20231 [1] = assay: fitness (endpoint OD595 vs no drug) (fraction); higher = more growth
How it was run: (§1)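 Volumes were 30 µl per well, or 55 µl for S. pneumoniae, in 384-well plates inoculated at OD595 0.01. Media were TSB, LB Lennox or CY at 37 °C, and OD595 was read every 30 min for 14 h with first-reading background subtraction. Fitness is the ratio of optical density at stationary-phase entry to the robust mean of no-drug controls. That ratio is capped at 1.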

S. aureus Newman [2] = assay: as above
How it was run: as §1

S. pneumoniae D39V [3] = assay: as above
How it was run: as §1

B. subtilis 168 = assay: Bliss interaction score (quartile over a dose matrix) (fitness difference); higher = more antagonism (negative = synergy)
How it was run: (§2)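 The Bliss score is observed fitness minus expected fitness, where the expected value is the product of single-drug fitness values inferred from combination data. Fitness is OD595 at entry into stationary phase normalised to the plate's robust no-drug mean and capped at 1. Scores are reported as quartiles spanning technical, biological and donor/recipient replicates.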

S. aureus DSM 20231 [4] = assay: as above
How it was run: as §2

S. aureus Newman [5] = assay: as above
How it was run: as §2

S. pneumoniae D39V [6] = assay: as above
How it was run: as §2
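Wherever Bliss interaction score (quartile over a dose matrix) is given: first quartile when negative (synergy) and third quartile when positive (antagonism).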

COc1c(N2C[C@@H]3CCCN[C@@H]3C2)c(F)cc2c(=O)c(C(=O)O)cn(C3CC3)c12 [Moxifloxacin] + Cn1nnc(-c2ccc(-c3ccc(N4C[C@H](CO)OC4=O)cc3F)cn2)n1 [Tedizolid]
fitness
Conditions	partner 0.03125 µg/mL	partner 0.0625 µg/mL	partner 0.125 µg/mL	partner 0.25 µg/mL	partner 0.5 µg/mL
S. aureus DSM 20231 [1], first compound 0.0075 µg/mL	–	0.813	0.765	0.411	–
S. aureus DSM 20231 [1], first compound 0.015 µg/mL	–	0.755	0.704	0.453	–
S. aureus DSM 20231 [1], first compound 0.03 µg/mL	–	0.682	0.7	0.653	–
S. aureus Newman [2], first compound 0.0075 µg/mL	–	0.755	0.737	0.41	–
S. aureus Newman [2], first compound 0.015 µg/mL	–	0.587	0.581	0.291	–
S. aureus Newman [2], first compound 0.03 µg/mL	–	–	0.343	0.178	–
S. pneumoniae D39V [3], first compound 0.0037 µg/mL	0.887	0.877	0.741	–	–
S. pneumoniae D39V [3], first compound 0.005 µg/mL	–	–	0.851	0.8	0.441
S. pneumoniae D39V [3], first compound 0.0075 µg/mL	0.904	0.871	0.761	–	–
S. pneumoniae D39V [3], first compound 0.01 µg/mL	–	–	0.857	0.775	0.466
S. pneumoniae D39V [3], first compound 0.015 µg/mL	0.897	0.822	0.761	–	–
S. pneumoniae D39V [3], first compound 0.02 µg/mL	–	–	0.842	0.778	0.49

fitness, S. aureus DSM 20231 [1], one replicate
Conditions	partner 0.0625 µg/mL	partner 0.125 µg/mL	partner 0.25 µg/mL
first compound 0.06 µg/mL	0.67	0.69	0.727
first compound 0.12 µg/mL	0.511	0.539	0.595

Conditions	Bliss interaction score
B. subtilis 168	-0.0253
S. aureus DSM 20231 [4]	0.103
S. aureus Newman [5]	0.0881
S. pneumoniae D39V [6]	-0.0629

CCC[C@@H]1C[C@@H](C(=O)N[C@@H]([C@H]2O[C@H](SC)[C@H](O)[C@@H](O)[C@H]2O)[C@H](C)Cl)N(C)C1 [Clindamycin] + Cn1nnc(-c2ccc(-c3ccc(N4C[C@H](CO)OC4=O)cc3F)cn2)n1 [Tedizolid]
fitness
Conditions	partner 0.03125 µg/mL	partner 0.0625 µg/mL	partner 0.125 µg/mL	partner 0.25 µg/mL	partner 0.5 µg/mL
S. aureus DSM 20231 [1], first compound 0.0312 µg/mL	–	–	–	0.314	–
S. aureus DSM 20231 [1], first compound 0.0625 µg/mL	–	0.0876	0.0753	0.0709	–
S. aureus DSM 20231 [1], first compound 0.125 µg/mL	–	0.0391	0.0406	0.0164	–
S. aureus Newman [2], first compound 0.125 µg/mL	–	0.0736	0.0453	0.0444	–
S. pneumoniae D39V [3], first compound 0.0125 µg/mL	–	–	0.551	0.434	0.201
S. pneumoniae D39V [3], first compound 0.015 µg/mL	0.901	0.918	0.778	–	–
S. pneumoniae D39V [3], first compound 0.025 µg/mL	–	–	0.375	0.33	0.149
S. pneumoniae D39V [3], first compound 0.03 µg/mL	0.781	0.814	0.721	–	–
S. pneumoniae D39V [3], first compound 0.05 µg/mL	–	–	0.224	0.166	0.097
S. pneumoniae D39V [3], first compound 0.06 µg/mL	0.641	0.646	0.605	–	–

Conditions	Bliss interaction score
B. subtilis 168	0.134
S. aureus DSM 20231 [4]	-0.024
S. aureus Newman [5]	-0.0925
S. pneumoniae D39V [6]	0.115

O=C(O[C@@H]1Cc2c(O)cc(O)cc2O[C@@H]1c1cc(O)c(O)c(O)c1)c1cc(O)c(O)c(O)c1 [EGCG] + CCCCCCCCCC(=O)N[C@@H]1[C@H]([C@@H]([C@H](O[C@H]1OC2=C3C=C4C=C2OC5=C(C=C(C=C5)[C@H]([C@H]6C(=O)N[C@@H](C7=C(C(=CC(=C7)O)OC8[C@H]([C@H]([C@@H]([C@H](O8)CO)O)O)O)C9=C(C=CC(=C9)[C@H](C(=O)N6)NC(=O)[C@@H]4NC(=O)[C@@H]1C2=CC(=CC(=C2)OC2=C(C=CC(=C2)[C@H](C(=O)N[C@H](CC2=CC(=C(O3)C=C2)Cl)C(=O)N1)N)O)O)O)C(=O)O)O[C@H]1[C@@H]([C@H]([C@@H]([C@H](O1)CO)O)O)NC(=O)C)Cl)CO)O)O [Teicoplanin]
fitness, main component drawn
Conditions	first compound 12.5 µg/mL	first compound 25 µg/mL	first compound 50 µg/mL
S. aureus DSM 20231 [1], partner 0.1562 µg/mL	0.846	0.833	0.892
S. aureus DSM 20231 [1], partner 0.3125 µg/mL	0.957	0.968	0.959
S. aureus DSM 20231 [1], partner 0.625 µg/mL	0.935	≥ 1	–
S. aureus Newman [2], partner 0.1562 µg/mL	0.833	0.805	0.749
S. aureus Newman [2], partner 0.3125 µg/mL	0.716	0.824	0.698
S. aureus Newman [2], partner 0.625 µg/mL	0.819	0.806	0.823

fitness, S. aureus Newman [2], one replicate, main component drawn
Conditions	first compound 12.5 µg/mL	first compound 25 µg/mL	first compound 50 µg/mL
partner 0.62 µg/mL	0.62	0.662	0.558
partner 1.24 µg/mL	0.646	0.604	0.565
partner 2.48 µg/mL	0.538	0.51	0.475

main component drawn
Conditions	Bliss interaction score
B. subtilis 168	-0.096
S. aureus DSM 20231 [4]	0.125
S. aureus Newman [5]	0.0918
S. pneumoniae D39V [6]	0.0672

O=C(N[C@H](CO)[C@H](O)c1ccc([N+](=O)[O-])cc1)C(Cl)Cl [Chloramphenicol] + C[C@@H]1O[C@@H]1P(=O)(O)O [Fosfomycin]
fitness
Conditions	first compound 0.75 µg/mL	first compound 1.5 µg/mL	first compound 3 µg/mL
S. aureus DSM 20231 [1], partner 0.781 µg/mL	0.633	0.473	0.116
S. aureus DSM 20231 [1], partner 1.562 µg/mL	0.558	0.402	0.0874
S. aureus DSM 20231 [1], partner 3.124 µg/mL	0.436	0.265	0.0652
S. aureus Newman [2], partner 0.781 µg/mL	0.491	0.394	0.117
S. aureus Newman [2], partner 1.562 µg/mL	0.452	0.272	0.0456
S. aureus Newman [2], partner 3.124 µg/mL	0.117	0.0322	0.0343

Conditions	Bliss interaction score
B. subtilis 168	0.129
S. aureus DSM 20231 [4]	0.0517
S. aureus Newman [5]	-0.108
S. pneumoniae D39V [6]	0.0635
